This note sets out measurements from patent publication US20070270475A1, “4-Methoxy-Pyrrolidine-2-Carboxylic Acid Compounds and Derivatives Thereof as Hepatitis C Virus Inhibitors” (priority 2004, published 2007).

This assay deals with Huh-7 HCV replicon cells (genotype 1a). The assay can be described thus: Replicon ELISA cell based assay, genotype 1a. The following applies: Hepatitis C virus, Huh-7 genotype 1a replicon, 72 hours. Also noted: species or system HCV genotype 1a. As for the experimental part: Replicon ELISA Cell Based Assay
100 μL of medium containing 10% FCS were added to each well of clear, flat-bottomed 96 well microplates, excepting wells in the top row. Test compound was diluted in assay medium to twice the final required starting concentration from a 40 mM stock solution in DMSO. 200 μL of the starting dilution were introduced into two wells each in the top row and doubling dilutions made down the plate by the sequential transfer of 100 μL aliquots with thorough mixing in the wells; the final 100 μL were discarded. The two bottom rows were not used for compound dilutions. Huh-7 HCV replicon cell monolayers nearing confluency were stripped from growth flasks with versene-trypsin solution and the cells were resuspended in assay medium at either 2×10^5 cells/mL (sub-line 5-15; genotype 1b; Lohmann, V., Korner, F., Koch, J-O., Herian, U., Thielmann, L. and Bartenschlager, R., 1999, Science, 285, pp 110-113) or at 3×10^5 cells/mL (genotype 1a; Gu, B., Gates, A.T., Isken, O., Behrens, S. E. and Sarisky, R. T., J. Virol., 2003, 77, 5352-5359). 100 μL of cell suspension were added to all wells and the plates incubated at 37° C. for 72 hours in a 5% CO2 atmosphere.
Following incubation, the assay medium was aspirated from the plates. The cell sheets were washed by gentle immersion in phosphate buffered saline (PBS), which was then aspirated off, and fixed with acetone:methanol (1:1) for 5 minutes. Following a further wash with PBS, 100 μL of ELISA diluent (PBS+0.05% v/v Tween 20+2% w/v skimmed milk powder) were added to all wells and the plates incubated at 37° C. for 30 minutes on an orbital platform. The diluent was removed and each well then received 50 μL of a 1/200 dilution of anti-HCV specific, murine, monoclonal antibody (either Virostat #1872 or #1877), except for wells in one of the compound-free control rows which received diluent alone to act as negative controls. The plates were incubated at 37° C. for 2 hours and washed 3 times with PBS/0.05% Tween 20, then 50 μL of horseradish peroxidase conjugated, anti-mouse, rabbit polyclonal serum (Dako #P0260), diluted 1/1000, were added to all wells. The plates were incubated for a further hour, the antibody removed and the cell sheets washed 5 times with PBS/Tween and blotted dry. The assay was developed by the addition of 50 μL of ortho-phenylenediamine/peroxidase substrate in urea/citrate buffer (SigmaFast, Sigma #P-9187) to each well, and colour allowed to develop for up to 15 minutes. The reaction was stopped by the addition of 25 μL per well of 2 M sulphuric acid and the plates were read at 490 nm on a Fluostar Optima spectrophotometer.
The substrate solution was removed and the plates were washed in tap water, blotted dry and the cells stained with 5% carbol fuchsin in water for 30 minutes. The stain was discarded and the cell sheets washed, dried and examined microscopically to assess cytotoxicity.
The absorbance values from all compound-free wells that had received both primary and secondary antibodies were averaged to obtain a positive control value. The mean absorbance value from the compound-free wells that had not received the primary antibody was used to provide the negative (background) control value. The readings from the duplicate wells at each compound concentration were averaged and, after the subtraction of the mean background from all values, were expressed as a percentage of the positive control signal. The quantifiable and specific reduction of expressed protein detected by the ELISA in the presence of a drug can be used as a measure of replicon inhibition. GraFit software (Erithacus Software Ltd.) was used to plot the curve of percentage inhibition against compound concentration and derive the 50% inhibitory concentration (IC50) for the compound.
Compound `COC[C@H]1C[C@@](CC(C)C)(C(=O)O)N(C(=O)c2ccc(C(C)(C)C)c(OC)c2)[C@H]1c1nccs1` (racemic) [Compound A, rel-(2S,4S,5R)-2-isobutyl-1-(3-methoxy-4-tert-butylbenzoyl)-4-methoxymethyl-5-(1,3-thiazol-2-yl)pyrrolidine-2-carboxylic acid, reference compound] yielded a concentration for half-maximal inhibition (IC50) of 10 to 100 µM.

`COC[C@H]1C[C@@](CC(C)C)(C(=O)O)N(C(=O)c2ccc(C(C)(C)C)c(OC)c2)[C@H]1c1ncc(C)s1` (racemic) [Compound C, rel-(2S,4S,5R)-2-isobutyl-1-(3-methoxy-4-tert-butylbenzoyl)-4-methoxymethyl-5-(5-methyl-1,3-thiazol-2-yl)pyrrolidine-2-carboxylic acid, reference compound] registered an IC50 of 10 to 100 µM.

Take `COC[C@H]1C[C@@](Cc2ccccc2)(C(=O)O)N(C(=O)c2ccc(C(C)(C)C)c(OC)c2)[C@H]1c1nccs1` (racemic) [Compound E, rel-(2R,4S,5R)-2-benzyl-1-(3-methoxy-4-tert-butylbenzoyl)-4-methoxymethyl-5-(1,3-thiazol-2-yl)-pyrrolidine-2-carboxylic acid, reference compound]: the half-maximal inhibitory concentration (IC50) is greater than 100 µM.

For `COC[C@H]1C[C@@](Cc2cscn2)(C(=O)O)N(C(=O)c2ccc(C(C)(C)C)c(OC)c2)[C@H]1c1ncc(C)s1` (racemic) [Example 1, rel-(2R,4S,5R)-1-(3-Methoxy-4-tert-butylbenzoyl)-4-(methoxymethyl)-5-(5-methyl-1,3-thiazol-2-yl)-2-(1,3-thiazol-4-ylmethyl)pyrrolidine-2-carboxylic acid], the concentration for half-maximal inhibition (IC50) is less than 10 µM.

Regarding `COC[C@H]1C[C@@](Cc2cscn2)(C(=O)O)N(C(=O)c2ccc(C(C)(C)C)c(OC)c2)[C@H]1c1nccs1` (racemic) [Example 3, rel-(2R,4S,5R)-1-(3-Methoxy-4-tert-butylbenzoyl)-4-(methoxymethyl)-5-(1,3-thiazol-2-yl)-2-(1,3-thiazol-4-ylmethyl)pyrrolidine-2-carboxylic acid], the concentration for half-maximal inhibition (IC50) is less than 10 µM.

`COC[C@H]1C[C@@](Cc2ccsn2)(C(=O)O)N(C(=O)c2ccc(C(C)(C)C)c(OC)c2)[C@H]1c1nccs1` (racemic) [Example 4, rel-(2R,4S,5R)-1-(3-Methoxy-4-tert-butylbenzoyl)-4-(methoxymethyl)-5-(1,3-thiazol-2-yl)-2-(1,2-thiazol-3-ylmethyl)pyrrolidine-2-carboxylic acid] showed an IC50 of less than 10 µM.

Compound `COC[C@H]1C[C@@](Cn2cccn2)(C(=O)O)N(C(=O)c2ccc(C(C)(C)C)c(OC)c2)[C@H]1c1nccs1` (racemic) [Example 6, rel-(2R,4S,5R)-1-(3-Methoxy-4-tert-butylbenzoyl)-4-(methoxymethyl)-2-(1H-pyrazol-1-ylmethyl)-5-(1,3-thiazol-2-yl)pyrrolidine-2-carboxylic acid] returned a half-inhibitory concentration (IC50) of less than 10 µM.

`COC[C@H]1C[C@@](Cc2nccs2)(C(=O)O)N(C(=O)c2ccc(C(C)(C)C)c(OC)c2)[C@H]1c1ncc(C)s1` (racemic) [Example 8, rel-(2R,4S,5R)-1-(3-Methoxy-4-tert-butylbenzoyl)-4-(methoxymethyl)-5-(5-methyl-1,3-thiazol-2-yl)-2-(1,3-thiazol-2-ylmethyl)pyrrolidine-2-carboxylic acid] returned an IC50 of less than 10 µM.

In the case of `COC[C@H]1C[C@@](Cc2ccsn2)(C(=O)O)N(C(=O)c2ccc(C(C)(C)C)c(OC)c2)[C@H]1c1ncc(C)s1` (racemic) [Example 9, rel-(2R,4S,5R)-1-(3-Methoxy-4-tert-butylbenzoyl)-4-(methoxymethyl)-5-(5-methyl-1,3-thiazol-2-yl)-2-(1,2-thiazol-3-ylmethyl)pyrrolidine-2-carboxylic acid], the IC50 is less than 10 µM.

Take `COC[C@H]1C[C@@](Cn2cccn2)(C(=O)O)N(C(=O)c2ccc(C(C)(C)C)c(OC)c2)[C@H]1c1ncc(C)s1` (racemic) [Example 10, rel-(2R,4S,5R)-1-(3-Methoxy-4-tert-butylbenzoyl)-4-(methoxymethyl)-5-(5-methyl-1,3-thiazol-2-yl)-2-(1H-pyrazol-1-ylmethyl)pyrrolidine-2-carboxylic acid]: the IC50 was less than 10 µM.

For the compound `COC[C@H]1C[C@@](Cn2cccn2)(C(=O)O)N(C(=O)c2ccc(C(C)(C)C)c(OC)c2)[C@H]1c1nccs1` (single isomer, unassigned) [Example 7], the concentration for half-maximal inhibition (IC50) is less than 10 µM.

`COCC1CC(CC(C)C)(C(=O)O)N(C(=O)c2ccc(C(C)(C)C)c(OC)c2)C1c1ncc(C)s1` (single isomer, unassigned; enantiomer a) [Compound D, reference compound] came in with a half-inhibitory concentration (IC50) of 10 to 100 µM.

Compound `COC[C@H]1C[C@@](Cc2cscn2)(C(=O)O)N(C(=O)c2ccc(C(C)(C)C)c(OC)c2)[C@H]1c1ncc(C)s1` (single isomer, unassigned; enantiomer a) [Example 2] showed a half-inhibitory concentration (IC50) of less than 10 µM.

`COC[C@H]1C[C@@](Cc2ccsn2)(C(=O)O)N(C(=O)c2ccc(C(C)(C)C)c(OC)c2)[C@H]1c1nccs1` (single isomer, unassigned; enantiomer a) [Example 5] registered an IC50 of less than 10 µM.

`COC[C@H]1C[C@@](Cn2cccn2)(C(=O)O)N(C(=O)c2ccc(C(C)(C)C)c(OC)c2)[C@H]1c1ncc(C)s1` (single isomer, unassigned; enantiomer a) [Example 11] had an IC50 of less than 10 µM.

In the case of `COC[C@H]1C[C@@](Cc2cscn2)(C(=O)O)N(C(=O)c2ccc(C(C)(C)C)c(OC)c2)[C@H]1c1nccs1` (single isomer, unassigned; enantiomer a) [Example 12], the IC50 is less than 10 µM.

In the case of `COC[C@H]1C[C@@](CC(C)C)(C(=O)O)N(C(=O)c2ccc(C(C)(C)C)c(OC)c2)[C@H]1c1nccs1` [Compound B, (2S,4S,5R)-2-isobutyl-1-(3-methoxy-4-tert-butylbenzoyl)-4-methoxymethyl-5-(1,3-thiazol-2-yl)pyrrolidine-2-carboxylic acid, reference compound], the IC50 was 10 to 100 µM.
